Laboratory results from paper PMC9607599, “Dual Targeting Ligands—Histamine H3 Receptor Ligands with Monoamine Oxidase B Inhibitory Activity—In Vitro and In Vivo Evaluation” (Pharmaceutics, 2022).
Values joined by “and” are separate entries in the source; they are usually repeats but may differ in a detail not shown here. Equal values may be shown once. Where a name gives a salt, the structure may show the parent alone. Read-outs that look alike come from different tables or passages of the source.

Tests used:
human MAO B (hMAO B) = target: T1, human MAO B (hMAO B) (Homo sapiens, UniProt P27338); experiment: fluorometric MAO assay (p-tyramine substrate); type: biochemical; settings: for IC50: fluorometric MAO assay, mean ± SEM of 2–4 independent experiments; for inhibition at 1 µM: mean of two independent experiments, read-out: hMAO B % of Inh.
T1 sequence (P27338 1-520): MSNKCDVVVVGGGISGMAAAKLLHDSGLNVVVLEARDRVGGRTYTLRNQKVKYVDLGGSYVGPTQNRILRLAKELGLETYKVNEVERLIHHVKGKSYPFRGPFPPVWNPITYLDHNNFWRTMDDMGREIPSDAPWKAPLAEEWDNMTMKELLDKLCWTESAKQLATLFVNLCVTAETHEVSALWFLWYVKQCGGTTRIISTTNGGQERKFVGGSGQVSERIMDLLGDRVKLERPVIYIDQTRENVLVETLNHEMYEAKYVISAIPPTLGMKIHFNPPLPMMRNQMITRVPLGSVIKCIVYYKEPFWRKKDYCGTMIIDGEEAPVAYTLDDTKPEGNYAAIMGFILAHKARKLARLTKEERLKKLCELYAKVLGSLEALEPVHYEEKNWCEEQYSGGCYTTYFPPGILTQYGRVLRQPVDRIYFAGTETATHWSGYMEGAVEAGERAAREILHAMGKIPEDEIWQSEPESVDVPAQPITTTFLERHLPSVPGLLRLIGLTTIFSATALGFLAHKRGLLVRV
Description: The precise method was described in [6]. First, compounds 4–32 were screened for hMAO B inhibitory activity at 1 μM concentration by the fluorometric method. Para-tyramine (200 μM) was used as a substrate for the enzyme and safinamide (1 μM) was used as a reference compound. […] Each experiment was performed in duplicate.
All compounds were first screened for hMAO B inhibitory activity at the concentration of 1 μM. […] Based on the results, we selected compounds 9 and 13 for further analysis.

[1] = target: human histamine H3 receptor (hH3R) (Homo sapiens, UniProt Q9Y5N1); experiment: [3H]Nα-methylhistamine radioligand binding assay in CHO-K1 cells stably expressing hH3R; design: expressed in transfected cells; host or cells: CHO-K1; settings: for inhibition at 1 µM / hH3R activity in words: CHO K1 cells; for inhibition at 1 µM: two independent experiments, read-out: hH3R % Inh. (radioligand inhibition); for Ki: CHO-K1 cells, [3H]Nα-methylhistamine, mean ± SEM of three independent experiments
Sequence of human histamine H3 receptor (hH3R) (Q9Y5N1 whole entry): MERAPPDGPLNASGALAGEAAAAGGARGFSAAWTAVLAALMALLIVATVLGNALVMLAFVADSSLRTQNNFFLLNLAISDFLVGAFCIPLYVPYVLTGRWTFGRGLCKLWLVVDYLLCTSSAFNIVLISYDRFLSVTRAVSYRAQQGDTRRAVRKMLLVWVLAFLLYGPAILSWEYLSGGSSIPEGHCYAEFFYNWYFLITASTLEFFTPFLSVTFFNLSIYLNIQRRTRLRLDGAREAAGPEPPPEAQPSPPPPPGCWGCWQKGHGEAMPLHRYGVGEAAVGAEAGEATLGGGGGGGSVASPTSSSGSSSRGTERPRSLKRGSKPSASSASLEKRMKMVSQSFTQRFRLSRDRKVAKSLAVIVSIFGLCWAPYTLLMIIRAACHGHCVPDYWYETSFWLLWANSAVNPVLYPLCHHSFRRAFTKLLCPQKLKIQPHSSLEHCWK
Description: Affinity to hH3R stably expressed in CHO-K1 [6] or HEK293 [11] cells was evaluated in a radioligand binding assay as described previously. Briefly, 10 mM stock solutions of the test compounds in DMSO were prepared. Each compound was tested at eight concentrations ranging from 10^−5 to 10^−12 M (final concentration). All assays were carried out in duplicate. […] The radioactivity was counted in MicroBeta 2 [6] or MicroBeta Trilux counter (PerkinElmer). Data were fitted to a one-site curve-fitting equation with Prism 6 (GraphPad Software, San Diego, CA, USA) and Ki values were calculated from IC50 values (from at least three experiments performed in duplicates) according to the Cheng−Prusoff equation [12].
Affinity for hH3R was evaluated in a radioligand binding assay using [^3H]N^α-methylhistamine as radioligand in CHO K1 or HEK293 cells stably expressing hH3R as described previously. […] Then, those with at least 50% inhibition for hH3R were selected for further testing (Ki evaluation). […] Compounds were tested in the binding assay in HEK293 cells.

MAO B = target: T2, MAO B (Homo sapiens, UniProt P27338); experiment: reversibility of MAO B inhibition (reactivation by excess p-tyramine, with/without preincubation); type: biochemical; settings: inhibitor at IC80
T2 sequence (P27338 1-520): T1 sequence (P27338 1-520)
Description: The reversibility of the MAO inhibition was tested as described in [6, 7]. […] Two variants of experiment were performed. […] After 22 min, the concentration of the substrate was increased to 200 µM and the signal was measured for 5 h.

IC50 (human MAO B (hMAO B)) [nM]	inhibition at 1 µM [1] [%]	Ki ([1]; read-out: hH3R Ki [nM] ± SEM)	SMILES	melting point	inhibition at 1 µM (human MAO B (hMAO B)) [%]	also measured
–	–	–	CCN(CC)CCCOc1ccc(C(C)(C)C)cc1.O=C(O)C(=O)O (hydrate or solvate) [Compound 7, 3-(4-(tert-Butyl)phenoxy)-N,N-diethylpropan-1-amine hydrogen oxalate]	105 to 108 °C	–	–
–	–	–	CC1CCCC(C)N1CCCOc1ccc(C(C)(C)C)cc1.Cl (stereo not drawn) (hydrate or solvate) [Compound 11, 1-(3-(4-(tert-Butyl)phenoxy)propyl)-2,6-dimethylpiperidine hydrogen chloride]	194 to 196 °C (dec.)	–	–
–	–	–	CC(C)(C)c1cccc(OCCCN2CCCCC2)c1.Cl (hydrate or solvate) [Compound 25, 1-(3-(3-(tert-Butyl)phenoxy)propyl)piperidine hydrogen chloride]	145 to 148 °C	–	–
19 ± 2	24	–	CN(C)CCCOc1ccc(C(C)(C)C)cc1 [Compound 4, 3-(4-(tert-Butyl)phenoxy)-N,N-dimethylpropan-1-amine hydrogen oxalate]	–	–	–
9	–	484 ± 15 nM	CCN(C)CCCOc1ccc(C(C)(C)C)cc1 [Compound 5, 3-(4-(tert-Butyl)phenoxy)-N-ethyl-N-methylpropan-1-amine hydrogen oxalate]	–	–	–
6 ± 1	–	900 ± 75 nM	CC(C)N(C)CCCOc1ccc(C(C)(C)C)cc1 [Compound 6, 3-(4-(tert-Butyl)phenoxy)-N-isopropyl-N-methylpropan-1-amine hydrogen oxalate]	–	–	–
15 ± 4	32	–	CCN(CC)CCCOc1ccc(C(C)(C)C)cc1 [Compound 7, 3-(4-(tert-Butyl)phenoxy)-N,N-diethylpropan-1-amine hydrogen oxalate]	–	–	–
37 ± 6	8	–	CC(C)N(CCCOc1ccc(C(C)(C)C)cc1)C(C)C [Compound 8, 3-(4-(tert-Butyl)phenoxy)-N,N-diisopropylpropan-1-amine hydrogen chloride]	–	–	–
9 ± 1	–	< 100 nM and 97 nM	CC1CCCC(C)N1CCCOc1ccc(C(C)(C)C)cc1 (stereo not drawn) [Compound 11, 1-(3-(4-(tert-Butyl)phenoxy)propyl)-2,6-dimethylpiperidine hydrogen chloride]	–	–	–
–	–	–	CC(C)(C)c1ccc(OCCCN2CCN(c3ccccc3)CC2)cc1.O=C(O)C(=O)O [Compound 16, 1-(3-(4-(tert-Butyl)phenoxy)propyl)-4-phenylpiperazine hydrogen oxalate]	164 to 166 °C	14	hH3R activity in words [1]: weak potency; Ki ([1]; hH3R Ki [nM] ± SEM): 535 ± 41 nM
–	13	> 1000 nM	CC(C)(C)c1ccccc1OCCCN1CCCCC1 [Compound 24, 1-(3-(2-(tert-Butyl)phenoxy)propyl)piperidine hydrogen oxalate]	–	4	–
1020 ± 69	–	340 ± 23 nM	CC(C)(C)c1cccc(OCCCN2CCCCC2)c1 [Compound 25, 1-(3-(3-(tert-Butyl)phenoxy)propyl)piperidine hydrogen chloride]	–	–	–
–	0	> 1000 nM	Cc1ccc(C(C)(C)C)c(OCCCN2CCCCC2)c1 [Compound 27, 1-(3-(2-(tert-Butyl)-5-methylphenoxy)propyl)piperidine hydrogen oxalate]	–	4	–
2320 ± 436	32	> 1000 nM	CC(C)(C)c1ccc(NC(=O)OCCCN2CCCCC2)cc1 [Compound 29, 3-(Piperidin-1-yl)propyl (4-(tert-butyl)phenyl)carbamate hydrogen oxalate]	–	–	–
–	15	–	CC(C)(C)NC(=O)OCCCN1CCCCC1 [Compound 30, 3-(Piperidin-1-yl)propyl tert-butylcarbamate hydrogen oxalate]	–	47	–
–	19	–	CC(C)(C)CC(C)(C)NC(=O)OCCCN1CCCCC1 [Compound 31, 3-(Piperidin-1-yl)propyl (2,4,4-trimethylpentan-2-yl)carbamate hydrogen oxalate]	–	41	–
925 ± 29	20	–	CC(C)(C)CCNC(=O)OCCCN1CCCCC1 [Compound 32, 3-(Piperidin-1-yl)propyl (3,3-dimethylbutyl)carbamate hydrogen oxalate]	–	–	–
–	–	57 nM and 57.5 nM	CC(C)(C)c1ccc(OCCCN2CCCCC2)cc1 [DL76, 1-(3-(4-tert-butylphenoxy)propyl)piperidine, reference compound]	–	–	–
–	–	–	C#CCN[C@@H]1CCc2ccccc21 [rasagiline, reference compound]	–	–	effect of 30 min preincubation on inhibition (preincubated vs non-preincubated) (MAO B): inhibited the enzyme more strongly than non-preincubated; reversibility of MAO B inhibition (MAO B; excess p-tyramine 200 µM): Irreversible inhibition

SMILES	IC50 (human MAO B (hMAO B)) [nM]	inhibition at 1 µM [1] [%]	Ki ([1]; read-out: hH3R Ki [nM] ± SEM)	melting point	inhibition at 1 µM (human MAO B (hMAO B)) [%]	also measured
CC(C)(C)c1ccc(OCCCN2CCOCC2)cc1.O=C(O)C(=O)O [Compound 14, 4-(3-(4-(tert-Butyl)phenoxy)propyl)morpholine hydrogen oxalate]	192 ± 14	11	–	188 to 192 °C	–	hH3R activity in words [1]: weak potency
CN1CCN(CCCOc2ccc(C(C)(C)C)cc2)CC1.O=C(O)C(=O)O [Compound 15, 1-(3-(4-(tert-Butyl)phenoxy)propyl)-4-methylpiperazine hydrogen oxalate]	665 ± 118	0	–	–	–	hH3R activity in words [1]: no activity at all
CC(C)(C)c1ccc(OCCCN2CCN(C/C=C\c3ccccc3)CC2)cc1.O=C(O)C(=O)O [Compound 17, (Z)-1-(3-(4-(tert-Butyl)phenoxy)propyl)-4-(3-phenylallyl)piperazine hydrogen oxalate]	–	0	–	217 to 219 °C	7	hH3R activity in words [1]: no activity at all
Cc1cccc(C(C)(C)C)c1OCCCN1CCCCC1.O=C(O)C(=O)O [Compound 26, 1-(3-(2-(tert-Butyl)-6-methylphenoxy)propyl)piperidine hydrogen oxalate]	–	0	> 1000 nM	134 to 135 °C	0	–
Cc1ccc(OCCCN2CCCCC2)c(C(C)(C)C)c1.O=C(O)C(=O)O [Compound 28, 1-(3-(2-(tert-Butyl)-4-methylphenoxy)propyl)piperidine hydrogen oxalate]	–	–	448 ± 59 nM	182 to 184 °C	7	–
